Drawing on PubChem BioAssay (NCI), this text covers GI50 and TGI for eleven compounds.

Test systems include BT-549 breast; HCC-2998 colon; HCT-15 colon; HOP-62 NSCLC; K-562 leukemia; NCI-H460 lung; SK-MEL-28 melanoma; SK-MEL-5 melanoma; HL-60(TB) leukemia; NCI/ADR-RES ovarian.
Common to all, as to test: NCI anticancer screen, dose series, 48 h

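Step 1: Grow cells in 96-well plates. Step 2: Expose to compound for 48 hours at 5 concentrations. Step 3: Interpolate endpoints linearly; if unreached, use highest concentration. At the GI50, growth is halved. At the TGI there is no net growth.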

In the case of `CC1SC(c2ccc(Cl)cc2Cl)N(NC(=O)C(O)c2ccccc2)C1=O` (stereo unspecified), the GI50 is over 100 µM in the experiment on BT-549 breast; over 100 µM in the experiment on HCC-2998 colon; 61.3 µM in the experiment on HCT-15 colon; over 100 µM in the experiment on HOP-62 NSCLC; 39.7 µM with K-562 leukemia; 47.7 µM in the experiment with NCI-H460 lung. In addition, the GI50 in the experiment with SK-MEL-28 melanoma was 76.1 µM; with SK-MEL-5 melanoma it was 58.6 µM. Besides, the TGI with BT-549 breast, with HCC-2998 colon, with HCT-15 colon, with HOP-62 NSCLC, in the experiment on K-562 leukemia and in the experiment with NCI-H460 lung was over 100 µM each time. Also, the TGI in the experiment with SK-MEL-28 melanoma and with SK-MEL-5 melanoma was over 100 µM throughout.
For the compound `O=C([O-])CC(=O)[O-].[NH-][C@@H]1CCCC[C@H]1[NH-].[Pt+4]`, the GI50 was 32.8 µM with BT-549 breast; 18.9 µM in the experiment on HCC-2998 colon; 9.61 µM with HCT-15 colon; 6.31 µM in the experiment with HL-60(TB) leukemia; over 27.1 µM with HOP-62 NSCLC; 3.66 µM with K-562 leukemia. The GI50 in the experiment on NCI-H460 lung is 3.17 µM; in the experiment with SK-MEL-28 melanoma it was 35.8 µM; in the experiment on SK-MEL-5 melanoma, 16.9 µM. For the same compound, the TGI in the experiment with BT-549 breast, in the experiment on HCC-2998 colon, in the experiment on HCT-15 colon, in the experiment with HL-60(TB) leukemia, in the experiment on HOP-62 NSCLC and with K-562 leukemia was over 100 µM in each case. In addition, the TGI in the experiment on NCI-H460 lung, with SK-MEL-28 melanoma and in the experiment with SK-MEL-5 melanoma was over 100 µM in each case.
As to `COC(=O)C1CCc2nnc(-c3ccccc3)n21` (stereo unspecified), the TGI with HCC-2998 colon, in the experiment on HCT-15 colon, with HL-60(TB) leukemia, with HOP-62 NSCLC, in the experiment on K-562 leukemia and with NCI-H460 lung was over 100 µM throughout. Further, the TGI in the experiment with SK-MEL-28 melanoma and with SK-MEL-5 melanoma was over 100 µM throughout.
`CC[PH+](CC)CC.[Cl][Au]`: the GI50 in the experiment with HCC-2998 colon is 6.78 µM; with HCT-15 colon, 1.31 µM; in the experiment with HL-60(TB) leukemia, under 0.0469 µM; with HOP-62 NSCLC, 19.4 µM; with K-562 leukemia it was 0.319 µM; in the experiment on NCI-H460 lung it was 16.2 µM. For the same compound, the GI50 was 0.78 µM with SK-MEL-28 melanoma and 1.14 µM in the experiment on SK-MEL-5 melanoma. Besides, the TGI is 12 µM in the experiment on HCC-2998 colon; 3.17 µM in the experiment with HCT-15 colon; 0.278 µM in the experiment on HL-60(TB) leukemia; 33.7 µM with HOP-62 NSCLC; 1.19 µM in the experiment on K-562 leukemia; 47.9 µM in the experiment on NCI-H460 lung. Also, the TGI in the experiment with SK-MEL-28 melanoma was 2.35 µM; in the experiment on SK-MEL-5 melanoma, 2.44 µM.
For the compound `O=c1/c(=N\Nc2ccccc2)c2cccc3ccc4cccc1c4c32`, the TGI in the experiment on BT-549 breast, in the experiment on HCT-15 colon, in the experiment on HOP-62 NSCLC, in the experiment on K-562 leukemia, with NCI/ADR-RES ovarian and with SK-MEL-28 melanoma was over 100 µM throughout. Besides, in the experiment with SK-MEL-5 melanoma, the TGI was over 100 µM.
For the compound `CC1=NOC(=O)/C1=C/c1ccc2c(c1)OCO2`, the TGI in the experiment with BT-549 breast was 56.8 µM; with HCC-2998 colon it was 95.5 µM; in the experiment on HCT-15 colon, 45.3 µM; with HOP-62 NSCLC, 40.9 µM; with K-562 leukemia it was over 100 µM; with NCI-H460 lung, over 100 µM. Further, the TGI in the experiment with NCI/ADR-RES ovarian, in the experiment with SK-MEL-28 melanoma and in the experiment on SK-MEL-5 melanoma was over 100 µM each time.
On to `N#CC1=C(N)NC(=O)NC12Nc1ccccc1N2`, for which the GI50 in the experiment with BT-549 breast, in the experiment with HCC-2998 colon, in the experiment with HCT-15 colon, with HOP-62 NSCLC, in the experiment on K-562 leukemia and with NCI-H460 lung was over 100 µM throughout. Further, the GI50 in the experiment on NCI/ADR-RES ovarian, in the experiment with SK-MEL-28 melanoma and in the experiment with SK-MEL-5 melanoma was over 100 µM in each case. In addition, the TGI with BT-549 breast, in the experiment with HCC-2998 colon, with HCT-15 colon, with HOP-62 NSCLC, in the experiment on K-562 leukemia and with NCI-H460 lung was over 100 µM throughout. For the same compound, the TGI in the experiment with NCI/ADR-RES ovarian, in the experiment with SK-MEL-28 melanoma and in the experiment on SK-MEL-5 melanoma was over 100 µM in each case.
For `COc1cc2cnc3c4cc(OCc5ccccc5)ccc4ccc3c2cc1OC`, the TGI with HCC-2998 colon was over 100 µM; in the experiment with HCT-15 colon, over 100 µM; with HL-60(TB) leukemia, 9.27 µM; in the experiment on HOP-62 NSCLC, 76.5 µM; with K-562 leukemia, over 100 µM; with NCI-H460 lung, over 100 µM. The TGI with SK-MEL-28 melanoma was over 100 µM; with SK-MEL-5 melanoma, 76 µM.
`c1cncc(CSc2nc3ccccc3nc2-c2cccs2)c1`: the TGI was over 100 µM with HCC-2998 colon; over 100 µM in the experiment with HCT-15 colon; 47.9 µM in the experiment with HL-60(TB) leukemia; over 100 µM in the experiment with HOP-62 NSCLC; over 100 µM in the experiment with K-562 leukemia; over 100 µM in the experiment on NCI-H460 lung. Besides, the TGI in the experiment on SK-MEL-28 melanoma and in the experiment on SK-MEL-5 melanoma was over 100 µM in each case.
Regarding `C1=CCCC=CCC1.C[PH+](C)C.C[PH+](C)C.C[PH+](C)C.[Cl-].[Ir]`, the GI50 with HCC-2998 colon was 91.4 µM; in the experiment with HCT-15 colon, over 100 µM; in the experiment on HL-60(TB) leukemia, 28.7 µM; in the experiment on HOP-62 NSCLC, over 100 µM; in the experiment on K-562 leukemia it was 26.6 µM; with NCI-H460 lung it was 77.9 µM. The GI50 is 46.6 µM in the experiment with SK-MEL-28 melanoma and 70 µM in the experiment on SK-MEL-5 melanoma. Also, the TGI in the experiment on HCC-2998 colon was over 100 µM; in the experiment with HCT-15 colon, over 100 µM; in the experiment on HL-60(TB) leukemia it was 75.3 µM; in the experiment with HOP-62 NSCLC, over 100 µM; in the experiment on K-562 leukemia, over 100 µM; in the experiment on NCI-H460 lung it was over 100 µM. In addition, the TGI in the experiment with SK-MEL-28 melanoma and in the experiment with SK-MEL-5 melanoma was over 100 µM in each case.
As for `C[C@]12C[C@H](O)[C@H]3[C@@H](CCC4=CC(=O)CC[C@@]43C)[C@@H]1CC[C@@H]2c1csc(-c2ccccc2)n1`, the TGI with BT-549 breast is over 100 µM; with HCT-15 colon, over 100 µM; in the experiment on HOP-62 NSCLC it was over 51.3 µM; in the experiment on K-562 leukemia it was over 100 µM; in the experiment with NCI-H460 lung, over 100 µM; in the experiment with NCI/ADR-RES ovarian, over 100 µM. Besides, in the experiment with SK-MEL-28 melanoma, the TGI is over 100 µM.
